Key:
Rad51 foci = test: Nuclear Rad51 foci by confocal microscopy in SKOV3 cells; format: cell-based; details: for Rad51 foci, single agent: 30 μM DB4 or 25 μM olaparib
Text: Cells were transfected with the ISceI-expressing plasmid and then treated various concentrations of DB4 for 48 hr. Cells were harvested, stained with 7-AAD, and analyzed by flow cytometry for GFP-positive cells indicative of HR repair activity. […] Cells were transfected with the ISceI-expressing plasmid and treated with various concentrations of DB4. Cells were harvested, stained with 7-AAD, and stained, and analyzed by flow cytometry for GFP-positive cells indicative of NHEJ activity. Data are means±SD (N=3). *, p<0.05; **, p<0.01, compared with the 0 μM control of ISceI-transected cells. FIG. 7C depicts representative results of confocal imaging of olaparib-induced nuclear Rad51 foci in SKOV3 cells treated DB4. Cells were treated with 30 μM DB4 for 1 hr and then treated with 25 μM olaparib or 6 hr. Cells were fixed, permeabilized, and stained with the anti-Rad51 antibody and the Alexa Fluor 488-conjugated secondary antibody. Nuclei were counterstained with DAPI. Immunofluorescence of Rad51 foci and nuclei were visualized by confocal microscopy. […] Cells were also scored for nuclei containing equal or more than 10 distinct Rad51 foci to determine the percentage of cells positive for Rad51 foci. Data are means±SD (N=10). p<0.001, compared between indicated treatment groups. […] Cells were pre-treated with 30 μM DB4 and then treated with 25 μM olaparib for 24 hr. Protein was assessed by western blot analysis for the levels of γH2AX, p-H1, cyclin A2, p-CDK1/2, and HSC70. Cropped gel images of protein bands are presented. Full-length gel images are shown in FIG. 15. p-H1, cyclin A2, p-CDK1/2, and HSC70 bands were from re-probing the same blot. The γH2AX band was from a duplicated blot. […] The band density of γH2AX indicative of DSBs was quantified by densitometry. […]
To interrogate whether DB4 inhibited PARP inhibitor-induced DSB repair, nuclear Rad51 foci were determined in SKOV3 cells. […]
SKOV3 cells were grown for 24 hr prior to drug treatment. […] Nuclei containing equal or more than 10 Rad51 foci were counted to determine % Rad51-positive cells.

PEO4ip xenografts = test: Survival of mice bearing peritoneal PEO4ip xenografts; format: in vivo, SCID-Beige mice; details: for effect on survival time of mice: olaparib 50 mg/kg, DB4 10 mg/kg, i.p. daily for 4 weeks
Protocol: SCID-Beige mice implanted ip with PEO4ip cells were treated daily (qd) with DB4 (10 mg/kg), olaparib (50 mg/kg), and the DB4-olaparib combination for 4 weeks. Kaplan Meier analysis was performed to determine the survival time of mice following treatments. Statistical significance was determined by the Mantel-Cox test comparing the control with each treatment group (N=4-5). […] DB4 given every two days (q2d) in the DB4-olaparib combination for 4 or 6 weeks (n=4-5). […] NOD CRISPR Prkdc Il2r Gamma (NCG) mice implanted sc with SKOV3 cells were treated as described in FIG. 10C for 4 weeks during which the tumor size was measured. Statistical significance was determined by the Wilcoxon matched-pairs signed test comparing the control with each treatment group and comparing between treatment groups. Data are means±SE (N=4-5). *, p<0.05; **, p<0.01.
First, the efficacy of the combination of DB4 and olaparib to treat PEO4ip tumor xenografts, as determined by the median survival time, was evaluated in a peritoneal mouse model (Lin Z P et al., 2018, PLOS One, 13:e0207399). Mice were implanted intraperitoneally (i.p.) with PEO4ip cells and then treated i.p. with olaparib, DB4, or both drugs in combination daily for 4 weeks. The survival endpoint (a 50% increase in abdominal circumference) for vehicle-treated control mice ranged from 55-65 days (8-9 weeks).
Next, these experiments were repeated with modified treatment schedules of DB4 given every two day (q2d) for 4-week and 6-week treatment periods.
Five to six weeks old female SCID-Beige mice were purchased from Envigo (Indianapolis, IN). PEO4ip cells (Lin Z P et al., 2018, PLOS One, 13:e0207399) suspended in 100 μL serum-free medium were implanted i.p. (1×10^7 cells per mouse). Six to eight weeks old female NCG (NOD-Prkdcem26Cd52Il2rgem26Cd22/NjuCrl) mice were purchased from Charles River (Wilmington, MA). SKOV3 cells suspended in 100 μL serum-free medium were mixed with 50 μL Matrigel (BD Biosciences) and implanted s.c. in the right dorsal medial area (1×10^7 cells per mouse). […] The abdominal circumference of PEO4ip-bearing mice reached a 50% increase about 50-70 days.
Mice were randomly assigned to treatment groups (n=4-5) and drug treatment was initiated 3-7 days after tumor implantation. The control group of mice received i.p. treatment with vehicle (2% DMSO) and treatment groups of mice received i.p. treatment for a period of 4 or 6 weeks as follows: Olaparib (50 mg/kg) once daily for 5 consecutive days per week; DB4 (10 mg/kg) once daily for 5 consecutive days (M, T, W, R, F) per week or once every 2 days (M, W, F) per week; The combined treatment with olaparib and DB4 at the dose and schedule described above.
The progression of PEO4ip tumor xenografts in mice was evaluated by measuring the size of the circumference at the lower one-third of the abdominal area with the mouse head positioned upward. A 50% increase in the abdominal circumference was defined as the endpoint of survival as described previously (Lin Z P et al., 2018, PLOS One, 13:e0207399). […] Kaplan-Meier survival curve, median survival time, and statistical analysis was performed using the Prism software (GraphPad). Comparisons were made by the Mantel-Cox test comparing the control with each treatment group. The growth of SKOV3 tumor xenografts was evaluated by the size of s.c. tumor using a digital caliper. Tumor volumes were calculated using the formula: length×width2/2. Statistical difference in the tumor size was determined by the Wilcoxon matched-pairs signed test comparing the control with each treatment group and comparing between treatment groups. Body weights of mice were measured on every treatment day before administration and on the same schedule as tumor measurements during the treatment period.

[1] = Table 2: olaparib 50 mg/kg qd, DB4 10 mg/kg qd, i.p., treated daily
[2] = Table 3: single agents, olaparib 50 mg/kg qd, DB4 10 mg/kg q2d

Structure (SMILES) | olaparib-induced Rad51 foci (Rad51 foci; 30 μM DB4 1 hr then 25 μM olaparib) | Rad51 foci, single agent (Rad51 foci) | Median Survival Time (PEO4ip xenografts; [1]) | Median Survival Time (PEO4ip xenografts; [2]) | effect on survival time of mice (PEO4ip xenografts)
C=CCn1c(SCc2cccc(Cl)c2)nnc1C1CCN(Cc2nc3ccccc3s2)CC1 [DB4, 2-[(4-{4-allyl-5-[(3-chlorobenzyl)thio]-4H-1,2,4-triazol-3-yl}-1-piperidinyl)methyl]-1,3-benzothiazole] | significantly attenuated | had no effects on Rad51 foci | 67 days | 56 days | no effects on the survival time of mice
O=C(c1cc(Cc2n[nH]c(=O)c3ccccc23)ccc1F)N1CCN(C(=O)C2CC2)CC1 [olaparib, reference compound] |  | induced a pronounced increase in Rad51 foci | 66 days | 55 days | no effects on the survival time of mice

From US20240239786A1, “COMPOSITIONS AND METHODS FOR THE TREATMENT AND PREVENTION OF CANCER” (Yale University, priority 2021, published 2024)
